For one data set, the system named is CHO. Briefly: Cytotoxicity against CHO cells by MTT assay. The class given is cell-based. The following applies: Cricetulus griseus. Background: Tetrazolium dyes change colour on reduction, which living cells bring about.
A short description of data set [1]: Selectivity index, ratio of IC50 for CHO cells to IC50 for chloroquine-sensitive Plasmodium falciparum NF54. It is filed as toxicity, cell-based. Conditions: hamster, read-out: Ratio IC50.
In data set [2] the test system is Plasmodium falciparum. The experiment in a line: Antiplasmodial activity against chloroquine-sensitive Plasmodium falciparum NF54 assessed as reduction in parasite growth by parasite lactate dehydrogenase assay. It is filed as functional, organism-based.
The subject of data set [3] is Plasmodium falciparum. Briefly: Antiplasmodial activity against Plasmodium falciparum after 48 hrs by NIH quantitative high throughput screen assay. It is filed as functional, organism-based.

Usually IC50 stands for the concentration needed to halve the response being measured. As to `CC(=O)c1ccc(C(=O)NC[C@@H]2C[C@@H]3c4cccc5c4c(cn5C)C[C@H]3N(C)C2)cc1`, the IC50 in the data set with CHO came to 152 µM; in the data set on Plasmodium falciparum [2] it was 12.3 µM. The selectivity ratio in data set [1] amounted to 12.
For `CN1C[C@H](CNC(=O)C2CCCCN2)C[C@@H]2c3cccc4c3c(cn4C)C[C@H]21` (stereo not given in full) the same measures were 16.6 µM, 1.23 µM and 13.
For `CN1C[C@H](CNC(=O)c2cccnc2)C[C@@H]2c3cccc4c3c(cn4C)C[C@H]21` the same measures were 162 µM, 17.4 µM and 9.
The matching figures for `CN1C[C@H](CNC(=O)c2ccncc2)C[C@@H]2c3cccc4c3c(cn4C)C[C@H]21`: 161 µM, 17.5 µM and 9.
Regarding `CN1C[C@H](CNC(=O)c2ccccn2)C[C@@H]2c3cccc4c3c(cn4C)C[C@H]21`, the IC50 with CHO came out at 112 µM; with Plasmodium falciparum [2], 11.4 µM. The selectivity ratio in data set [1] was 10.
For `CN1C[C@H](CNC(=O)c2cnccn2)C[C@@H]2c3cccc4c3c(cn4C)C[C@H]21` the same measures were 164 µM, 8.4 µM and 20.
On to `CN1C[C@H](CNC(=O)c2ccncn2)C[C@@H]2c3cccc4c3c(cn4C)C[C@H]21`, for which the 50% inhibitory concentration (IC50) in the data set with Plasmodium falciparum [2] turned out to be 27.4 µM.
Same read-out and setting: the same measure for `CC(=O)NC[C@@H]1C[C@@H]2c3cccc4c3c(cn4C)C[C@H]2N(C)C1`: 199 µM; for `CCC(=O)NC[C@@H]1C[C@@H]2c3cccc4c3c(cn4C)C[C@H]2N(C)C1`: 40.3 µM; for `CCCC(=O)NC[C@@H]1C[C@@H]2c3cccc4c3c(cn4C)C[C@H]2N(C)C1`: 32.1 µM.
As for `CCCCC(=O)NC[C@@H]1C[C@@H]2c3cccc4c3c(cn4C)C[C@H]2N(C)C1`, the results for the IC50 in the data set on CHO and with Plasmodium falciparum [2] were 105 µM and 18.7 µM, respectively. Besides, the selectivity ratio in data set [1] came to 6.
Consider `CN1C[C@H](CNC(=O)C(C)(C)C)C[C@@H]2c3cccc4c3c(cn4C)C[C@H]21`, for which the IC50 in the data set with Plasmodium falciparum [2] is 89.1 µM.
Still for that read-out and setting: the same measure for `CCCCCC(=O)NC[C@@H]1C[C@@H]2c3cccc4c3c(cn4C)C[C@H]2N(C)C1`: 28.6 µM.
`CCCCCCC(=O)NC[C@@H]1C[C@@H]2c3cccc4c3c(cn4C)C[C@H]2N(C)C1`: the values for the IC50 in the data set on CHO and with Plasmodium falciparum [2] were 8.9 µM and 9.1 µM, respectively. Moreover, the selectivity ratio in data set [1] stood at 1.
As for `CCCCCCCC(=O)NC[C@@H]1C[C@@H]2c3cccc4c3c(cn4C)C[C@H]2N(C)C1`, the IC50 with CHO worked out at 4.6 µM; in the data set with Plasmodium falciparum [2] it was 3.9 µM. Moreover, in data set [1], the selectivity ratio amounted to 1.
For `CCCCCCCCCC(=O)NC[C@@H]1C[C@@H]2c3cccc4c3c(cn4C)C[C@H]2N(C)C1`, the figures for the IC50 with CHO and with Plasmodium falciparum [2] were 86.6 µM and 5.2 µM, respectively. In addition, the selectivity ratio in data set [1] is 17.
For `CN1C[C@H](CNC(=O)C2CCCC2)C[C@@H]2c3cccc4c3c(cn4C)C[C@H]21` the same measures were 144 µM, 4.3 µM and 33.
The matching figures for `CN1C[C@H](CNC(=O)c2ccc(OC(F)(F)F)cc2)C[C@@H]2c3cccc4c3c(cn4C)C[C@H]21`: 12.8 µM, 4.2 µM and 3.
The matching figures for `CN1C[C@H](CNC(=O)c2ccc([N+](=O)[O-])cc2)C[C@@H]2c3cccc4c3c(cn4C)C[C@H]21`: 5 µM, 0.5 µM and 11.
With `CN1C[C@H](CNC(=O)c2ccc(Cl)cc2)C[C@@H]2c3cccc4c3c(cn4C)C[C@H]21`, the results for the IC50 in the data set with CHO and with Plasmodium falciparum [2] were 4.3 µM and 1.3 µM, respectively. The selectivity ratio in data set [1] amounted to 3.
For `CN1C[C@H](CNC(=O)c2ccccc2Cl)C[C@@H]2c3cccc4c3c(cn4C)C[C@H]21`, the IC50 came out at 25 µM in the data set on CHO and 14.6 µM in the data set on Plasmodium falciparum [2]. In data set [1], the selectivity ratio was found to be 2.
The matching figures for `CN1C[C@H](CNC(=O)c2cccc(Cl)c2)C[C@@H]2c3cccc4c3c(cn4C)C[C@H]21`: 4.7 µM, 4.9 µM and 1.
For `CN1C[C@H](CNC(=O)c2ccc(Cl)c(Cl)c2)C[C@@H]2c3cccc4c3c(cn4C)C[C@H]21` the same measures were 3.8 µM, 4.8 µM and 1.
For `CN1C[C@H](CNC(=O)c2ccc(Cl)cc2Cl)C[C@@H]2c3cccc4c3c(cn4C)C[C@H]21` the same measures were 7.5 µM, 8.3 µM and 1.
In the case of `CN1C[C@H](CNC(=O)c2ccc(C#N)cc2)C[C@@H]2c3cccc4c3c(cn4C)C[C@H]21`, the figures for the IC50 with CHO and in the data set with Plasmodium falciparum [2] were 104 µM and 0.6 µM, respectively. In addition, the selectivity ratio in data set [1] came to 188.
As to `CN1C[C@H](CNC(=O)c2ccc(S(C)(=O)=O)cc2)C[C@@H]2c3cccc4c3c(cn4C)C[C@H]21`, the IC50 in the data set on CHO was determined as 222 µM; in the data set on Plasmodium falciparum [2], 14.2 µM. For the same compound, the selectivity ratio in data set [1] was 16.
For `COc1ccc(C(=O)NC[C@@H]2C[C@@H]3c4cccc5c4c(cn5C)C[C@H]3N(C)C2)cc1` the same measures were 7.4 µM, 8.4 µM and 1.
For `CSc1ccc(C(=O)NC[C@@H]2C[C@@H]3c4cccc5c4c(cn5C)C[C@H]3N(C)C2)cc1` the same measures were 6 µM, 4.7 µM and 1.
For `CCc1ccc(C(=O)NC[C@@H]2C[C@@H]3c4cccc5c4c(cn5C)C[C@H]3N(C)C2)cc1` the same measures were 5.6 µM, 4.3 µM and 1.
Take `CCCCc1ccc(C(=O)NC[C@@H]2C[C@@H]3c4cccc5c4c(cn5C)C[C@H]3N(C)C2)cc1`: the IC50 turned out to be 14.5 µM in the data set on CHO and 2 µM in the data set with Plasmodium falciparum [2]. Further, the selectivity ratio in data set [1] was 7.
For `CN(C)c1ccc(C(=O)NC[C@@H]2C[C@@H]3c4cccc5c4c(cn5C)C[C@H]3N(C)C2)cc1` the same measures were 132 µM, 33.8 µM and 4.
For `CN1C[C@H](CN)C[C@@H]2c3cccc4c3c(cn4C)C[C@H]21` the same measures were 26.1 µM, 3.6 µM and 7.
Regarding `CN1C[C@H](CNC(=O)c2ccccc2)C[C@@H]2c3cccc4c3c(cn4C)C[C@H]21`, the IC50 in the data set on CHO was found to be 27 µM; in the data set with Plasmodium falciparum [2] it was 24.4 µM. Besides, the selectivity ratio in data set [1] was 1.
For `CN1C[C@H](CNC(=O)c2ccc(F)cc2)C[C@@H]2c3cccc4c3c(cn4C)C[C@H]21` the same measures were 7.3 µM, 12.5 µM and 0.6.
The matching figures for `CN1C[C@H](CNC(=O)c2ccc(Br)cc2)C[C@@H]2c3cccc4c3c(cn4C)C[C@H]21`: 5.1 µM, 2.6 µM and 2.
The matching figures for `CN1C[C@H](CNC(=O)c2ccc(I)cc2)C[C@@H]2c3cccc4c3c(cn4C)C[C@H]21`: 5.5 µM, 3 µM and 2.
Consider `CN1C[C@H](CNC(=O)c2ccc(C(F)(F)F)cc2)C[C@@H]2c3cccc4c3c(cn4C)C[C@H]21`, for which the IC50 in the data set with CHO amounted to 4.9 µM; in the data set on Plasmodium falciparum [2] it was 2.7 µM. The selectivity ratio in data set [1] was determined as 2.
For `C[C@H]1[C@H](OC(=O)CCC(=O)O)O[C@@H]2O[C@@]3(C)CC[C@H]4[C@H](C)CC[C@@H]1[C@@]24OO3` [ARTESUNATE], the IC50 in the data set on Plasmodium falciparum [2] came out at 2.8 ng/mL.
`CC[C@H]1CN2CCc3cc(OC)c(OC)cc3[C@@H]2C[C@@H]1C[C@H]1NCCc2cc(OC)c(OC)cc21` [EMETINE] had an IC50 in the data set with CHO of 0.05 µM.
Take `CN1C[C@H](CNC(=O)OCc2ccccc2)C[C@@H]2c3cccc4c3c(cn4C)C[C@H]21` [METERGOLINE]: the IC50 in the data set on Plasmodium falciparum [3] amounted to 7.4 µM; in the data set on CHO, 16.6 µM; with Plasmodium falciparum [2], 3.7 µM. For the same compound, in data set [1], the selectivity ratio is 4.5.

Values taken from ChEMBL document CHEMBL3132842, “Synthesis of metergoline analogues and their evaluation as antiplasmodial agents” (Medchemcomm, 2014).
